Assay results taken from PMC8815882, “Screening the pandemic response box identified benzimidazole carbamates, Olorofim and ravuconazole as promising drug candidates for the treatment of eumycetoma” (PLoS Neglected Tropical Diseases, 2022).
Where two headings read alike, the source gives them in different places.

Key:
[1] = tested on: M. mycetomatis MM55; assay: IC50 determination, 2-fold dilution series 16 to 0.03125 μM; type: cell-based, Madurella mycetomatis; settings: for IC50 / IC90: Madurella mycetomatis
[2] = tested on: M. mycetomatis genome strain MM55; assay: CLSI M38-A2 based in vitro susceptibility screening (XTT or resazurin), growth at fixed concentration; type: cell-based, Madurella mycetomatis; settings: Madurella mycetomatis; for Percent fungal survival at 100 µM: read-out: Percentage survival at 100um, 100 uM A (second replicate column)
[3] = MM55, replicate 1, read-out: IC50 1 um
[4] = MM55, replicate 1, read-out: IC90 1 um
[5] = MM55, replicate 2, read-out: IC50 2 um
[6] = MM55, replicate 2, read-out: IC90 2 um
[7] = MM55, replicate 3, read-out: IC50 3 um
[8] = MM55, replicate 3, read-out: IC90 3 um
[9] = mean of three, M. mycetomatis MM55, read-out: Percentage survival at 25um, 25 uM mean
[10] = replicate A, M. mycetomatis MM55, read-out: Percentage survival at 25um, 25 um A
[11] = replicate B, M. mycetomatis MM55, read-out: Percentage survival at 25um, 25 uM B
[12] = replicate C, M. mycetomatis MM55, read-out: Percentage survival at 25um, 25 uM C
[13] = mean of three, M. mycetomatis MM55, read-out: Percentage survival at 100um, 100 uM mean
[14] = replicate 1, M. mycetomatis MM55, read-out: Percentage survival at 100um, 100 uM A (first replicate column)
[15] = replicate 2, M. mycetomatis MM55
[16] = replicate 3, M. mycetomatis MM55, read-out: Percentage survival at 100um, 100 uM A (third replicate column)
[17] = MM55, replicate 1, read-out: IC50 1
[18] = MM55, replicate 1, read-out: IC90 1
[19] = MM55, replicate 2, read-out: IC50 2
[20] = MM55, replicate 2, read-out: IC90 2
[21] = MM55, replicate 3, read-out: IC50 3
[22] = MM55, replicate 3, read-out: IC90 3
[23] = mean, read-out: Percentage survival at 25um, 25 uM mean
[24] = replicate A, read-out: Percentage survival at 25um, 25 um A
[25] = replicate B, read-out: Percentage survival at 25um, 25 uM B
[26] = replicate C, read-out: Percentage survival at 25um, 25 uM C
[27] = mean, read-out: Percentage survival at 100um, 100 uM mean
[28] = replicate (first column), read-out: Percentage survival at 100um, 100 uM A
[29] = replicate (second column), read-out: Percentage survival at 100um, 100 uM A
[30] = replicate (third column), read-out: Percentage survival at 100um, 100 uM A
[31] = MM55, mean of replicates, read-out: IC50 mean
[32] = MM55, mean of replicates, read-out: IC90 mean
[33] = MM55, mean of three replicates, read-out: IC50 mean
[34] = MM55, mean of three replicates, read-out: IC90 mean
[35] = mean of three replicates, read-out: Percentage survival at 25um, 25 uM mean
[36] = mean of three replicates, read-out: Percentage survival at 100um, 100 uM mean
[37] = replicate 1, read-out: Percentage survival at 100um, 100 uM A (first replicate column)
[38] = replicate 3, read-out: Percentage survival at 100um, 100 uM A (third replicate column)
[39] = MM55, mean, read-out: IC50 mean

| IC50 [1, 3] [µM] | IC90 [1, 4] [µM] | IC50 [1, 5] [µM] | IC90 [1, 6] [µM] | IC50 [1, 7] [µM] | IC90 [1, 8] [µM] | IC50 [1, 33] [µM] | IC90 [1, 34] [µM] | SMILES | Drug static or cidal ([1]; M. mycetomatis) | activity at 25 µM [2, 9] [%] | activity at 25 µM [2, 10] [%] | Drug static or cidal [1] | activity at 25 µM [2, 24] [%] | activity at 25 µM [2, 25] [%] | activity at 25 µM [2, 26] [%] | activity at 25 µM [2, 35] [%] | activity at 100 µM [2, 36] [%] | activity at 100 µM [2, 37] [%] | Percent fungal survival at 100 µM ([2]; replicate 2) [%] | activity at 100 µM [2, 38] [%] | further results |
| --- | --- | --- | --- | --- | --- | --- | --- | --- | --- | --- | --- | --- | --- | --- | --- | --- | --- | --- | --- | --- | --- |
| 23.9 | > 25 | 14.6 | 22.9 | > 25 | > 25 |  |  | CC(C)=CCC/C(C)=C/CNCCNC1C2CC3CC(C2)CC1C3 (stereo not shown) [MMV687273] | Cidal | 1.12 | -2.04 |  |  |  |  |  |  |  |  |  | activity at 25 µM [2, 11]: 4.77%; activity at 25 µM [2, 12]: 0.619%; activity at 100 µM [2, 13]: 6.61%; activity at 100 µM [2, 14]: 4.04%; Percent fungal survival at 100 µM [2, 15]: 15.3%; activity at 100 µM [2, 16]: 0.477% |
|  |  |  |  |  |  |  |  | NCC(=O)Nc1ccc(-n2nc(C(F)(F)F)cc2-c2ccc3c(ccc4ccccc43)c2)cc1 [MMV1578560] |  |  |  | Static | 29.4 | -2.28 | 2.05 |  |  |  |  |  | IC90 ([1]; MM55, read-out: IC90 mean): > 25 µM; IC50 [1, 17]: 17.4 µM; IC90 [1, 18]: > 25 µM; IC50 [1, 19]: 22.8 µM; IC90 [1, 20]: > 25 µM; IC50 [1, 21]: > 25 µM; IC90 [1, 22]: > 25 µM; activity at 25 µM [2, 23]: 9.74%; activity at 100 µM [2, 27]: 3%; activity at 100 µM [2, 28]: -6.61%; activity at 100 µM [2, 29]: 10.2%; activity at 100 µM [2, 30]: 5.38% |
| 6.8 | 23.7 | 12.5 | 22.2 | 12.1 | 22.2 |  |  | O=S(=O)(Nc1cccc2cccnc12)c1ccccc1 [MMV1578890] | Static | 2.42 | 2.33 |  |  |  |  |  |  |  |  |  | IC50 [1, 31]: 10.5 µM; IC90 [1, 32]: 22.7 µM; activity at 25 µM [2, 11]: 0.789%; activity at 25 µM [2, 12]: 4.13%; activity at 100 µM [2, 13]: 29.9%; activity at 100 µM [2, 14]: 1.58%; Percent fungal survival at 100 µM [2, 15]: 81.7%; activity at 100 µM [2, 16]: 6.47% |
| > 25 | > 25 | > 25 | > 25 | > 25 | > 25 | > 25 | > 25 | CC(C)Oc1ccc(-c2nc(-c3cccc4c3CC[C@@H]4NCCO)no2)cc1C#N [MMV1580492] |  |  |  | Cidal | -14.6 | -6.47 | 0.368 | -6.9 | 2.78 | -1.25 | -2.44 | 12 |  |
| > 25 | > 25 | > 25 | > 25 | > 25 | > 25 | > 25 | > 25 | FC(F)(F)Oc1ccc(Nc2ccc3cccc(Cl)c3n2)cc1 [MMV1581032] |  |  |  | Static | -12.4 | 8.52 | 2.93 | -0.326 | 0.711 | -4.67 | 1 | 5.8 |  |
| > 25 | > 25 | > 25 | > 25 | > 25 | > 25 | > 25 | > 25 | Cc1cc(O)c2c(c1)C(=O)c1c(I)c(O)c(I)c(O)c1C2=O [MMV1581545] |  |  |  | Cidal | 10.6 | 4.74 | 21.8 | 12.4 | 12.4 | 10.8 | 14.2 | 12.3 |  |
| 13.2 | 23.1 | 15.8 | 23.6 | 16.5 | 24.2 | 15.2 | 23.6 | N#Cc1c(F)c(Cl)c(NCc2ccccc2)c(C#N)c1F [MMV1582496] |  |  |  | Static | 2 | -0.68 | 13.6 | 4.98 | 2.09 | -0.676 | 1.24 | 5.72 |  |
| 3.2 | 18 | 15.9 | 23.4 | 18 | 23.7 |  |  | O=[N+]([O-])c1ccc2c(CCc3c[nH]c4ccccc34)c[nH]c2c1 [MMV1593539] | Cidal | 4.51 | 2.73 |  |  |  |  |  |  |  |  |  | IC50 [1, 31]: 12.4 µM; IC90 [1, 32]: 21.7 µM; activity at 25 µM [2, 11]: 8.11%; activity at 25 µM [2, 12]: 2.7%; activity at 100 µM [2, 13]: 47.9%; activity at 100 µM [2, 14]: 0.0782%; Percent fungal survival at 100 µM [2, 15]: 136%; activity at 100 µM [2, 16]: 7.7% |
| 4.23 | > 25 | 16.5 | 24 | 12.2 | 23.5 |  |  | Nc1nnnn1CCOc1c2[nH]c3ccc(Cl)cc3c2cc2c1[nH]c1ccc(Cl)cc12 [MMV1633966] | Cidal | 3.05 | 1.67 |  |  |  |  |  |  |  |  |  | IC50 [1, 31]: 11 µM; activity at 25 µM [2, 11]: 3.75%; activity at 25 µM [2, 12]: 3.74%; activity at 100 µM [2, 13]: 3.34%; activity at 100 µM [2, 14]: 3.63%; Percent fungal survival at 100 µM [2, 15]: 1.28%; activity at 100 µM [2, 16]: 5.11% |
|  |  |  |  |  |  |  |  | CCOC(=O)Nc1cc(NC(C)CC(C)CN(CC)CC)c2nc(-c3ccccc3)c(-c3ccccc3)nc2n1 (stereo not shown) [MMV1633967] |  |  |  | Static | -4.99 | 0.0169 | -0.146 |  |  |  |  |  | IC50 [1, 39]: > 25 µM; IC90 ([1]; MM55, read-out: IC90 mean): > 25 µM; IC50 [1, 17]: > 25 µM; IC90 [1, 18]: > 25 µM; IC50 [1, 19]: > 25 µM; IC90 [1, 20]: > 25 µM; IC50 [1, 21]: > 25 µM; IC90 [1, 22]: > 25 µM; activity at 25 µM [2, 23]: -1.71%; activity at 100 µM [2, 27]: 60.2%; activity at 100 µM [2, 28]: 73.9%; activity at 100 µM [2, 29]: 96.6%; activity at 100 µM [2, 30]: 10.1% |
| 14.2 | 22.3 | 9.8 | 22.7 | 11.2 | 21 | 11.8 | 22 | Cc1nc2ccc(Oc3ccccc3)cc2c2c1CCN2CCc1ccccc1 [MMV1634399] |  |  |  | Cidal | -3.19 | -1.6 | 16.4 | 3.88 | 0.985 | 1.91 | -0.867 | 1.92 |  |
| 6.6 | 20 | 16.1 | 23.9 | 13.8 | 22.8 | 12.2 | 22.2 | N=C(N)NCCCCC(=O)Nc1cc(C(F)(F)F)cc(NC(=O)c2cc(C(=O)Nc3cc(C(F)(F)F)cc(NC(=O)CCCCNC(=N)N)c3O[C@@H]3CCNC3)ncn2)c1O[C@@H]1CCNC1 [MMV1634402] |  |  |  | Cidal | 3.69 | 8.57 | 29.8 | 14 | 18.1 | 14.1 | 19.7 | 20.5 |  |
|  |  |  |  |  |  |  |  | Cc1ccc(Oc2ccccc2-c2csc(NC3=NCCCN3)n2)c(C)c1 [MMV1634493] |  |  |  | Static | 34.1 | 1.37 | 4.64 |  |  |  |  |  | IC50 [1, 39]: > 25 µM; IC90 ([1]; MM55, read-out: IC90 mean): > 25 µM; IC50 [1, 17]: > 25 µM; IC90 [1, 18]: > 25 µM; IC50 [1, 19]: > 25 µM; IC90 [1, 20]: > 25 µM; IC50 [1, 21]: > 25 µM; IC90 [1, 22]: > 25 µM; activity at 25 µM [2, 23]: 13.4%; activity at 100 µM [2, 27]: 5.01%; activity at 100 µM [2, 28]: 1.69%; activity at 100 µM [2, 29]: 6.56%; activity at 100 µM [2, 30]: 6.77% |
